Results taken from patent US20080176810A1, “Use of 3, 4', 5-Trihydroxy-Stilbene-3-Beta-D-glucoside in Prepartion of Medicines For Treating and/or Preventing Ischemic Heart Disease” (SHENZHEN NEPTUNUS PHARMACEUTICAL CO., LTD., priority 2004, published 2008).

System: anesthetized dogs
Test: Myocardial oxygen consumption, coronary flow, cardiac output in anesthetized dogs, iv
Format: in vivo
Settings: c3-c8 5,15,30,60,90,120 min after administration; for cardiac output, x ± s / myocardial oxygen uptake, x ± s / coronary artery resistance, x ± s / myocardial oxygen consumption, x ± s / total peripheral resistance (TPR), x ± s: c2 0 min before
Procedure: Isosorbide Dinitrate control group were medicated by continuous intravenous infusion and other groups by intravenous injection.
The animals were anesthetised with 3% pentobarbital sodium iv at the dose of 30 mg/kg. Tracheal intubation was performed and SC-M5 anesthesia respirator (manufactured by Shanghai Medical Instrument Factory, frequency: 16˜18 per min, tidal volume: 350˜550 ml) was connected. Bilateral femoral arteries were separated for blood sampling and analyzing and measurement of mean blood pressure. Thoracotomy at the fourth intercostal space was performed to expose the heart and to open the pericardium to make pericardial hammock. Ascending aortic root and upper part of left branch of anterior descending coronary artery were dissociated to put respectively probes of electromagnetic flowmeter (MFV-1100/1200, made by Japanese Nihon Kohden Company) to measure cardiac output and coronary artery flow rate. Right jugular vein was separated for insertion of a cardiac catheter that was guided into coronary venous sinuses before fixation. Synchronously, blood was sampled by drawing from coronary sinus and femoral artery (0.5% heparin was added for anticoagulation). pO2 and pH were detected with a blood gas analyzer (DH-1830 Blood Gas Acid-base Analyze, Nanjing Ananalysis Apparatus Factor) and the values were converted to artery and venous oxygen content. After intravenous infusion of control solvent or the drug, constant infusion for all groups was completed with an electronic constant flow pump (SH-88AB Controllable Intravenous Injector made by Quanzhou Lizhong Electronic Medical Instrument Factory). Both artery and venous blood gas before administration or 5, 15, 30, 60, 90 and 120 min after administration was analyzed and mean blood pressure and cardiac output at 0, 5, 15, 30, 60, 90 and 120 min were observed.
Myocardial oxygen consumption(ml/min/100 g)=coronary flow ml/min/100 g×artery oxygen−coronary sinus oxygen ml %).
Myocardial oxygen uptake (%)=(artery oxygen ml %−coronary sinus oxygen ml %)/artery oxygen ml %
Total peripheral resistance of general circulation(dyn·s·cm−5)=mean arterial blood pressure[MAP(KPa)]×80/cardiac output[CO(L/min)]=mean arterial blood pressure[MAP(mmHg)]×10.6/cardiac output[CO(L/min)]
Coronary resistance[Kpa/ml/min]=mean arterial blood pressure[MAP(KPa)]/coronary artery flow.

[1] = TSG 5 mg/kg iv, before administration, 0 min
[2] = TSG 5 mg/kg iv, 5 min after administration
[3] = TSG 5 mg/kg iv, 15 min after administration
[4] = TSG 5 mg/kg iv, 30 min after administration
[5] = TSG 5 mg/kg iv, 60 min after administration
[6] = TSG 5 mg/kg iv, 90 min after administration
[7] = TSG 5 mg/kg iv, 120 min after administration
[8] = TSG 10 mg/kg iv, 0 min, before administration
[9] = TSG 10 mg/kg iv, 5 min after administration
[10] = TSG 10 mg/kg iv, 15 min after administration
[11] = TSG 10 mg/kg iv, 30 min after administration
[12] = TSG 10 mg/kg iv, 60 min after administration
[13] = TSG 10 mg/kg iv, 90 min after administration
[14] = TSG 10 mg/kg iv, 120 min after administration
[15] = TSG 10 mg/kg iv, before administration, 0 min

For “3,4′,5-trihydroxy-stilbene-3-β-D-glucoside [TSG]”, the “cardiac output, x ± s” value [1] was 1.09 ± 0.14 L/min, the “myocardial oxygen uptake, x ± s” value [1] was 79.5 ± 6.93% and the “cardiac output, variation %” value [2] was 3.58 ± 2.00%. For the same substance, the “coronary artery resistance, variation %” value [2] was 3.03%, the “myocardial oxygen consumption, variation %” value [2] was −0.52 ± 1.59% and the “myocardial oxygen uptake, variation %” value [2] was 0.15%. The “total peripheral resistance (TPR), variation %” value [2] was −0.82 ± 2.72%, the “cardiac output, variation %” value [3] was 3.47 ± 0.97% and the “coronary artery resistance, variation %” value [3] was 2.18 ± 2.46%. The “total peripheral resistance (TPR), variation %” value [3] was 1.31 ± 2.04%, the “cardiac output, variation %” value [4] was 5.25 ± 2.62% and the “coronary artery resistance, variation %” value [4] was 0.02 ± 3.86%. For the same substance, the “myocardial oxygen consumption, variation %” value [4] was −0.59 ± 2.68%, the “myocardial oxygen uptake, variation %” value [4] was −5.76 ± 5.34 % and the “total peripheral resistance (TPR), variation %” value [4] was 0.90 ± 1.20%. The “cardiac output, variation %” value [5] was 6.05 ± 2.06 %, the “coronary artery resistance, variation %” value [5] was −3.62 ± 3.63% and the “myocardial oxygen consumption, variation %” value [5] was 0.68 ± 1.74%. For the same substance, the “myocardial oxygen uptake, variation %” value [5] was −6.24 ± 4.39 %, the “total peripheral resistance (TPR), variation %” value [5] was 0.20 ± 1.19% and the “cardiac output, variation %” value [6] was 5.98 ± 2.02 %. For the same substance, the “coronary artery resistance, variation %” value [6] was −4.03 ± 2.13%, the “myocardial oxygen consumption, variation %” value [6] was −0.91 ± 2.81% and the “myocardial oxygen uptake, variation %” value [6] was −5.51 ± 4.5 %. The “total peripheral resistance (TPR), variation %” value [6] was −1.59 ± 3.63%, the “cardiac output, variation %” value [7] was 4.86 ± 2.88% and the “coronary artery resistance, variation %” value [7] was −3.99 ± 3.34 %. For the same substance, the “total peripheral resistance (TPR), variation %” value [7] was −2.75 ± 3.55%, the “coronary artery resistance, x ± s” value [8] was 0.273 ± 0.032 Kpa/ml/min and the “myocardial oxygen consumption, x ± s” value [8] was 214.1 ± 6.66 mL/min.100 g^−1. The “total peripheral resistance (TPR), x ± s” value [8] was 891.8 ± 93.4 dyn·s·cm^−5, the “cardiac output, x ± s” value [9] was 1.13 ± 0.13 L/min and the “coronary artery resistance, x ± s” value [9] was 0.286 Kpa/ml/min. The “myocardial oxygen consumption, x ± s” value [9] was 211.0 ± 5.44 mL/min.100 g^−1, the “myocardial oxygen uptake, x ± s” value [9] was 78.7% and the “total peripheral resistance (TPR), x ± s” value [9] was 890.5 ± 82.2 dyn·s·cm^−5. For the same substance, the “cardiac output, x ± s” value [10] was 1.14 ± 0.14 L/min, the “coronary artery resistance, x ± s” value [10] was 0.278 ± 0.028 Kpa/ml/min and the “total peripheral resistance (TPR), x ± s” value [10] was 891.3 ± 78.1 dyn·s·cm^−5. The “cardiac output, x ± s” value [11] was 1.16 ± 0.13 L/min, the “coronary artery resistance, x ± s” value [11] was 0.274 ± 0.035 Kpa/ml/min and the “myocardial oxygen consumption, x ± s” value [11] was 208.0 ± 5.3 mL/min.100 g^−1. The “myocardial oxygen uptake, x ± s” value [11] was 71.3 ± 5.28%, the “total peripheral resistance (TPR), x ± s” value [11] was 903.4 ± 76.9 dyn·s·cm^−5 and the “cardiac output, x ± s” value [12] was 1.18 ± 0.14 L/min. For the same substance, the “coronary artery resistance, x ± s” value [12] was 0.267 ± 0.037 Kpa/ml/min, the “myocardial oxygen consumption, x ± s” value [12] was 210.3 ± 6.32 mL/min.100 g^−1 and the “myocardial oxygen uptake, x ± s” value [12] was 71.7 ± 5.71 %. The “total peripheral resistance (TPR), x ± s” value [12] was 878.7 ± 90.9 dyn·s·cm^−5, the “cardiac output, x ± s” value [13] was 1.18 ± 0.15 L/min and the “coronary artery resistance, x ± s” value [13] was 0.270 ± 0.040 Kpa/ml/min. For the same substance, the “myocardial oxygen consumption, x ± s” value [13] was 209.1 ± 6.38 mL/min.100 g^−1, the “myocardial oxygen uptake, x ± s” value [13] was 72.4 ± 5.51 % and the “total peripheral resistance (TPR), x ± s” value [13] was 872.9 ± 98.6 dyn·s·cm^−5. For the same substance, the “cardiac output, x ± s” value [14] was 1.15 ± 0.16 L/min, the “coronary artery resistance, x ± s” value [14] was 0.263 ± 0.038 Kpa/ml/min and the “total peripheral resistance (TPR), x ± s” value [14] was 863.7 ± 80.0 dyn·s·cm^−5. For the same substance, the “cardiac output, x ± s” value [15] was 1.08 ± 0.15 L/min, the “myocardial oxygen uptake, x ± s” value [15] was 80.0 ± 6.55% and the “cardiac output, variation %” value [9] was 4.60 ± 3.19%. The “coronary artery resistance, variation %” value [9] was 4.63%, the “myocardial oxygen consumption, variation %” value [9] was −1.45 ± 1.13% and the “myocardial oxygen uptake, variation %” value [9] was −1.46%. For the same substance, the “total peripheral resistance (TPR), variation %” value [9] was 0.02 ± 4.07%, the “cardiac output, variation %” value [10] was 5.74 ± 2.02 % and the “coronary artery resistance, variation %” value [10] was 1.79 ± 3.25%. The “total peripheral resistance (TPR), variation %” value [10] was 0.09 ± 2.25%, the “cardiac output, variation %” value [11] was 7.43 ± 3.40 % and the “coronary artery resistance, variation %” value [11] was 0.21 ± 1.44%. The “myocardial oxygen consumption, variation %” value [11] was −2.77 ± 3.75%, the “myocardial oxygen uptake, variation %” value [11] was −10.7 ± 4.01 % and the “total peripheral resistance (TPR), variation %” value [11] was 1.49 ± 3.81%. For the same substance, the “cardiac output, variation %” value [12] was 9.41 ± 4.82 %, the “coronary artery resistance, variation %” value [12] was −2.64 ± 2.78% and the “myocardial oxygen consumption, variation %” value [12] was −1.75 ± 3.51%. For the same substance, the “myocardial oxygen uptake, variation %” value [12] was −10.3 ± 5.25 %, the “total peripheral resistance (TPR), variation %” value [12] was −1.42 ± 3.68% and the “cardiac output, variation %” value [13] was 9.05 ± 2.24 %. The “coronary artery resistance, variation %” value [13] was −1.69 ± 4.78%, the “myocardial oxygen consumption, variation %” value [13] was −2.28 ± 3.5% and the “myocardial oxygen uptake, variation %” value [13] was −9.32 ± 3.22 %. For the same substance, the “total peripheral resistance (TPR), variation %” value [13] was −2.16 ± 2.50%, the “cardiac output, variation %” value [14] was 6.53 ± 2.43 % and the “coronary artery resistance, variation %” value [14] was −4.10 ± 5.44 %. For the same substance, the “total peripheral resistance (TPR), variation %” value [14] was −3.00 ± 4.04%.
